Experiment [1] has as its target Tyrosine-protein kinase ABL1 (Homo sapiens) (UniProt P00519). The experiment can be described thus: Inhibition of human ABL1 (27 to end residues) assessed as residual activity at 1 uM using EAIYAAPFAKKK as substrate incubated for 40 mins in presence of [gamma-33ATP] by scintillation counting based radiometry assay relative to control.
Experiment [2] has as its target Aurora kinase B (Homo sapiens) (UniProt Q96GD4). The experiment can be described thus: Inhibition of recombinant full length human Aurora B assessed as residual activity at 1 uM using AKRRRLSSLRA as substrate incubated for 40 mins in presence of [gamma-33ATP] by scintillation counting based radiometry assay relative to control.
Experiment [3] relates to Tyrosine-protein kinase Blk (Homo sapiens), P51451 [UNDEFINED MUTATION]. The experiment can be described thus: Inhibition of recombinant full length human BLK M287V mutant assessed as residual activity at 1 uM using poly(Glu, Tyr) 4:1 as substrate incubated for 40 mins in presence of [gamma-33ATP] by scintillation counting based radiometry assay relative to control.
Experiment [4] has as its target Calcium/calmodulin-dependent protein kinase type II subunit alpha (Homo sapiens) (UniProt Q9UQM7). Description: Inhibition of recombinant full length human CaMK2alpha assessed as residual activity at 1 uM using KKLNRTLSFAEPG as substrate incubated for 40 mins in presence of [gamma-33ATP] by scintillation counting based radiometry assay relative to control.
In experiment [5] the target is Calcium/calmodulin-dependent protein kinase type IV (Homo sapiens) (UniProt Q16566). Description: Inhibition of recombinant full length human CaMK4 assessed as residual activity at 1 uM […] incubated for 40 mins in presence of [gamma-33ATP] by scintillation counting based radiometry assay relative to control.
The test system of experiment [6] is CDK18/Cyclin Y (Homo sapiens), Q07002+Q8ND76 [T166M]. Description: Inhibition of recombinant full length human CDK18 /cyclinY T166M mutant assessed as residual activity at 1 uM using YRRAAVPPSPSLS as substrate incubated for 40 mins in presence of [gamma-33ATP] by scintillation counting based radiometry assay relative to control. It counts as protein-complex assay.

Experiment [7] addresses Cyclin-dependent kinase-like 4 (Homo sapiens) (UniProt Q5MAI5). Description: Inhibition of recombinant full length human CDKL4 assessed as residual activity at 1 uM in presence of [gamma-33ATP] by scintillation counting based radiometry assay relative to control.
Experiment [8] has as its target Dual specificity tyrosine-phosphorylation-regulated kinase 2 (Homo sapiens) (UniProt Q92630). The experiment can be described thus: Inhibition of recombinant human DYRK2 assessed as residual activity at 1 uM using casein as substrate at 40 mins in presence of [gamma-33ATP] by scintillation counting based radiometry assay relative to control.
Experiment [9] concerns the target Epidermal growth factor receptor (Homo sapiens) (UniProt P00533). The experiment can be described thus: Inhibition of recombinant human EGFR (696 to end residues) assessed as residual activity at 1 uM using poly(Glu, Tyr) 4:1 as substrate at 40 mins in presence of [gamma-33ATP] by scintillation counting based radiometry assay relative to control.
In experiment [10] the target is Ephrin type-A receptor 7 (Homo sapiens) (UniProt Q15375). The experiment can be described thus: Inhibition of recombinant human EphA7 (613 to 909 residues) assessed as residual activity at 1 uM using KTFCGTPEYLAPEVRREPRILSEEEQEMFRDFDYIADWC as substrate at 40 mins in presence of [gamma-33ATP] by scintillation counting based radiometry assay relative to control.
The target in experiment [11] is Mitogen-activated protein kinase kinase kinase kinase 2 (Homo sapiens) (UniProt Q12851). The experiment can be described thus: Inhibition of recombinant human GCK (1 to 473 residues) assessed as residual activity at 1 uM using myelin basic protein as substrate at 40 mins in presence of [gamma-33ATP] by scintillation counting based radiometry assay relative to control.

For experiment [12], the target named is Dual specificity mitogen-activated protein kinase kinase 1 (Homo sapiens) (UniProt Q02750). The experiment can be described thus: Inhibition of recombinant human MEK1 assessed as residual activity at 1 uM using inactive MAPK2 as substrate incubated for 40 mins in presence of [gamma-33ATP by scintillation counting based radiometry assay relative to control.

For experiment [13], the target named is Mitogen-activated protein kinase kinase kinase 9 (Homo sapiens) (UniProt P80192). Description: Inhibition of recombinant human MLK1 (134 to 414 residues) assessed as residual activity at 1 uM using casein as substrate incubated for 40 mins in presence of [gamma-33ATP by scintillation counting based radiometry assay relative to control.
Experiment [14] deals with MAP kinase-interacting serine/threonine-protein kinase 2 (Homo sapiens) (UniProt Q9HBH9). The experiment can be described thus: Inhibition of recombinant full-length human Mnk2 assessed as residual activity at 1 uM using myelin basic protein as substrate measured after 40 mins in presence of [gamma33P]ATP by scintillation counting method.
Experiment [15] deals with Muscle, skeletal receptor tyrosine-protein kinase (Homo sapiens) (UniProt O15146). Description: Inhibition of recombinant human MUSK (530 to end residues) assessed as residual activity at 1 uM using myelin basic protein as substrate measured after 40 mins in presence of [gamma33P]ATP by scintillation counting method relative to control.
Experiment [16] has as its target Myosin-IIIb (Homo sapiens) (UniProt Q8WXR4). The experiment can be described thus: Inhibition of recombinant human MYO3B (1 to 306 residues) assessed as residual activity at 1 uM using RLGRDKYKTLRQIRQ as substrate measured after 40 mins in presence of [gamma33P]ATP by scintillation counting method relative to control.
For experiment [17], the target named is Protein kinase C iota type (Homo sapiens) (UniProt P41743). The experiment can be described thus: Inhibition of recombinant full-length human PKCiota assessed as residual activity at 1 uM using ERMRPRKRQGSVRRRV as substrate incubated for 40 mins in presence of [gamma33P]ATP by scintillation counting based radiometry assay relative to control.
The target of experiment [18] is Macrophage-stimulating protein receptor (Homo sapiens) (UniProt Q04912). The experiment can be described thus: Inhibition of recombinant human Ron (983 to end residues) assessed as residual activity at 1 uM using GGMEDIYFEFMGGKKK as substrate measured after 40 mins in presence of [gamma33P]ATP by scintillation counting method relative to control.
For the next experiment, the species on record is Homo sapiens. Description: Inhibition of human activated Tec F514V mutant (174 to end residues) assessed as residual activity at 1 uM using EFPIYDFLPAKKK as substrate measured after 40 mins in presence of [gamma33P]ATP by scintillation counting method relative to control.
Experiment [19] concerns TGF-beta receptor type-1 (Homo sapiens), P36897 [T204D]. Description: Inhibition of human TGFBR1 T204D mutant (200 to end residues) assessed as residual activity at 1 uM using casein as substrate measured after 40 mins in presence of [gamma33P]ATP by scintillation counting method relative to control.
Experiment [20] relates to Angiopoietin-1 receptor (Homo sapiens), Q02763 [Q939H,Q940H,Y897S]. Description: Inhibition of human Tie2 Q939H/Q940H/Y897S mutant (771 to end residues) assessed as residual activity at 1 uM using EFPIYDFLPAKKK as substrate measured after 40 mins in presence of [gamma33P]ATP by scintillation counting method relative to control.

Sequence of TGF-beta receptor type-1 (Homo sapiens), P36897 [T204D] (P36897 whole entry T204D): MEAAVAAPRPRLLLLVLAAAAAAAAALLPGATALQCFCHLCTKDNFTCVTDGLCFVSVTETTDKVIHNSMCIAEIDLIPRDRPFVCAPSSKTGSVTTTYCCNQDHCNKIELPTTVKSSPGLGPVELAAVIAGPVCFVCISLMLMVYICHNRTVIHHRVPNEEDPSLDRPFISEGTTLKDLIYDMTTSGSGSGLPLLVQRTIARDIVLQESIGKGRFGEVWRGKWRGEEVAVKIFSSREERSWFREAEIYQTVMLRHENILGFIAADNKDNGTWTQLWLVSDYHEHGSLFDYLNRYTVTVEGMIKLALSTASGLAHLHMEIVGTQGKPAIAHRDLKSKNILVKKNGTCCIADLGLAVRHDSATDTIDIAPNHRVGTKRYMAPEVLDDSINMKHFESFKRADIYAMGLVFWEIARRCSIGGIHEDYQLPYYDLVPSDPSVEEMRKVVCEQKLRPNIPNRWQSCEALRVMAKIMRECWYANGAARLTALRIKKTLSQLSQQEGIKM
Sequence of Muscle, skeletal receptor tyrosine-protein kinase (Homo sapiens) (O15146 whole entry, the tested form may be a part): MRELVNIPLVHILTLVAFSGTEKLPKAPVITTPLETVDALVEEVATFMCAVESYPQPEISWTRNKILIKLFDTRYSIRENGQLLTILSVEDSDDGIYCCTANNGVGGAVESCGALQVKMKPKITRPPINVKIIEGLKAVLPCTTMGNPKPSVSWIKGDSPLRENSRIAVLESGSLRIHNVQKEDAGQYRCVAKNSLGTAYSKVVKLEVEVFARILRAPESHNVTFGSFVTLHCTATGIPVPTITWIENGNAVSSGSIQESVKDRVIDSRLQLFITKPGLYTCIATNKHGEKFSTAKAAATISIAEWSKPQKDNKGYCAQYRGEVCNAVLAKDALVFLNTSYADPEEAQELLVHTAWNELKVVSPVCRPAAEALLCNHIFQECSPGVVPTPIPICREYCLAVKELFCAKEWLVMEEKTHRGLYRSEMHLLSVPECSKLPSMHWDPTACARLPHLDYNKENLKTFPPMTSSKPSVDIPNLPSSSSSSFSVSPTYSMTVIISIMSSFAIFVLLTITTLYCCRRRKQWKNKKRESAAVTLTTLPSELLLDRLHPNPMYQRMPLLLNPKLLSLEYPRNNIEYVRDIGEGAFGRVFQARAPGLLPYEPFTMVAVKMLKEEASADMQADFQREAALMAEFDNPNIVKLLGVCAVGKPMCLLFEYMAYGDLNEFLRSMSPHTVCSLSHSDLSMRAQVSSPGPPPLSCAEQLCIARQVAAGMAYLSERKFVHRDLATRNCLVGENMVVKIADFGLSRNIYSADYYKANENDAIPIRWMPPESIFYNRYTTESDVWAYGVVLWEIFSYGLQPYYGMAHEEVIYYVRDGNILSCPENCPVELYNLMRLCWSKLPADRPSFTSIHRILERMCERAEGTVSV
Sequence of Dual specificity mitogen-activated protein kinase kinase 1 (Homo sapiens) (Q02750 whole entry): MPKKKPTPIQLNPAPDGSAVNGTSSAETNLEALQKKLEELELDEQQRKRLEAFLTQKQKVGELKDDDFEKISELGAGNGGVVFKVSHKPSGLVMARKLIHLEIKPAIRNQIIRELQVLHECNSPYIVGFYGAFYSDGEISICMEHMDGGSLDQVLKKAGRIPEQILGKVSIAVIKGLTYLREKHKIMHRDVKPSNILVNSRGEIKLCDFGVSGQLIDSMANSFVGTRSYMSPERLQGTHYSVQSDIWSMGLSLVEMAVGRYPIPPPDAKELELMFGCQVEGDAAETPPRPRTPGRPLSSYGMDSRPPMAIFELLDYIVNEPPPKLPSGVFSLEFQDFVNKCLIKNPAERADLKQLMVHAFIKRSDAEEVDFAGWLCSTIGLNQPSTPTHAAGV
Sequence of Calcium/calmodulin-dependent protein kinase type IV (Homo sapiens) (Q16566 whole entry): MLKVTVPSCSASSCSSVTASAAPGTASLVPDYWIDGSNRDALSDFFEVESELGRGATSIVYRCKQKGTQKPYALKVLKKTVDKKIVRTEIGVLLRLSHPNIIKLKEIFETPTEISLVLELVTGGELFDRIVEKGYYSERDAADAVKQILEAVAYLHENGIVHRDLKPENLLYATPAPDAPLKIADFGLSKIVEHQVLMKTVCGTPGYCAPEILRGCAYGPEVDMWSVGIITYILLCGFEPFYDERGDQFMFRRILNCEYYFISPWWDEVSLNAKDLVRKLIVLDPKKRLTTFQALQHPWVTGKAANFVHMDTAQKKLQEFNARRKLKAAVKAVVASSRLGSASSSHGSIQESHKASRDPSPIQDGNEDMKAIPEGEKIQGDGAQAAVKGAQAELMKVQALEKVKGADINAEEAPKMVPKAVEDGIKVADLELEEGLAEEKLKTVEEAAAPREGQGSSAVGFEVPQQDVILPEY
Sequence of Protein kinase C iota type (Homo sapiens) (P41743 whole entry): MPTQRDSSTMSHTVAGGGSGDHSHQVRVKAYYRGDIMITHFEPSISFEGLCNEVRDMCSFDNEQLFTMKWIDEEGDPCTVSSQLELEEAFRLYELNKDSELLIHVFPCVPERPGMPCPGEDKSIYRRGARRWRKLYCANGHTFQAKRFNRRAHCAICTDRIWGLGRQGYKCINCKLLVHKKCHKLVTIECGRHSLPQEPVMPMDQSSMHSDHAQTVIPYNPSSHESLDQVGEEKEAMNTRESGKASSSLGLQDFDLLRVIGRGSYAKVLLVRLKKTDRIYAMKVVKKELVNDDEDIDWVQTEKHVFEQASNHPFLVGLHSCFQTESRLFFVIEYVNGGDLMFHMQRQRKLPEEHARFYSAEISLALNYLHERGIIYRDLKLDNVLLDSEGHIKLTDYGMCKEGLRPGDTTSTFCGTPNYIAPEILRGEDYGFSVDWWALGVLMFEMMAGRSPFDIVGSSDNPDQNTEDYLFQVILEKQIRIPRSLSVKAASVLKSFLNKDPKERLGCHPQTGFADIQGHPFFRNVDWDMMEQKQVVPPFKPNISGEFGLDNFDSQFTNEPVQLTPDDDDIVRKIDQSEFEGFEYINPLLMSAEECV
Sequence of Cyclin-dependent kinase-like 4 (Homo sapiens) (Q5MAI5 whole entry): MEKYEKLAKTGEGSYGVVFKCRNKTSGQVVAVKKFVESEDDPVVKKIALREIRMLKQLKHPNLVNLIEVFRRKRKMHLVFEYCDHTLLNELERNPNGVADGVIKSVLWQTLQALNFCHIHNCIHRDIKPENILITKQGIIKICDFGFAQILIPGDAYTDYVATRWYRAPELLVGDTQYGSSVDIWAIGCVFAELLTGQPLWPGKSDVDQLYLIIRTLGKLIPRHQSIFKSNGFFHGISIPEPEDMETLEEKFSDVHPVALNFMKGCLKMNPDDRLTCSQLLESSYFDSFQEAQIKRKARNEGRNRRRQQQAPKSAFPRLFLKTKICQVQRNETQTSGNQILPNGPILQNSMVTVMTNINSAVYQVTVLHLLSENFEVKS
Sequence of Ephrin type-A receptor 7 (Homo sapiens) (Q15375 28-998 limits assumed): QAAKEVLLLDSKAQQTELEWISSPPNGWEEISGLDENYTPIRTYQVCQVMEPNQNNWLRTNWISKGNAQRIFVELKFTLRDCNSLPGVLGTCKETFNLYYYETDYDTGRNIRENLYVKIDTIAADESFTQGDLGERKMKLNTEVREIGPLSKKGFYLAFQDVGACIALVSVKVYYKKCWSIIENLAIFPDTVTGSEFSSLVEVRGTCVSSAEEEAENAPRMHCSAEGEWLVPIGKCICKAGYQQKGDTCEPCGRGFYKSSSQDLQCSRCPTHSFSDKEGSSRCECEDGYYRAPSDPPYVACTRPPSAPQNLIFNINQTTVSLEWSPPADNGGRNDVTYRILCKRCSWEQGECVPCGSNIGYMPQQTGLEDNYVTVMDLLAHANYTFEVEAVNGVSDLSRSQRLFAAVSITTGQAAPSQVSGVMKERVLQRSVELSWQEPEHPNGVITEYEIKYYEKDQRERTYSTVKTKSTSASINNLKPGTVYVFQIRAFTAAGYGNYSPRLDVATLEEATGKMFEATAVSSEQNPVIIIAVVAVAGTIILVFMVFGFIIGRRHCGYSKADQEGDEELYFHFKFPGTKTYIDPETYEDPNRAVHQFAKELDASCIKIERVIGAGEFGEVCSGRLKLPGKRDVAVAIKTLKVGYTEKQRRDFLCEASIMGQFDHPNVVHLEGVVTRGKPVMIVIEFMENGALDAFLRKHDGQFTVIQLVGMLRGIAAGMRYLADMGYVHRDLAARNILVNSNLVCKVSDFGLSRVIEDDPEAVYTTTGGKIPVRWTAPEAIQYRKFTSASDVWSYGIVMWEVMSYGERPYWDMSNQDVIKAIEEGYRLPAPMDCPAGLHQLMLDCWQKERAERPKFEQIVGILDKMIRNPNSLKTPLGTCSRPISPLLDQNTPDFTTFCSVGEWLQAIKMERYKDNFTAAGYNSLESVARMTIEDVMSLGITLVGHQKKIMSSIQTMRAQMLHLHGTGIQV
Sequence of Aurora kinase B (Homo sapiens) (Q96GD4 whole entry): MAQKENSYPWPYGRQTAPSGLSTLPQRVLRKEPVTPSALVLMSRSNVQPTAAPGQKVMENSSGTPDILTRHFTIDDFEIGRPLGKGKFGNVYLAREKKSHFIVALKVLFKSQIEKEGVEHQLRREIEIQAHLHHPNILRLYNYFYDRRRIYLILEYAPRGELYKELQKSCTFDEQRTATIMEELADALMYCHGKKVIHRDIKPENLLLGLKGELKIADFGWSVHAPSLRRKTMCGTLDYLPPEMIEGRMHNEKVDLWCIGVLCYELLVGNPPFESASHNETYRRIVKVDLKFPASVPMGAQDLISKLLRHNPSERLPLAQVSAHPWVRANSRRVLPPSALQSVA
Sequence of Calcium/calmodulin-dependent protein kinase type II subunit alpha (Homo sapiens) (Q9UQM7 whole entry): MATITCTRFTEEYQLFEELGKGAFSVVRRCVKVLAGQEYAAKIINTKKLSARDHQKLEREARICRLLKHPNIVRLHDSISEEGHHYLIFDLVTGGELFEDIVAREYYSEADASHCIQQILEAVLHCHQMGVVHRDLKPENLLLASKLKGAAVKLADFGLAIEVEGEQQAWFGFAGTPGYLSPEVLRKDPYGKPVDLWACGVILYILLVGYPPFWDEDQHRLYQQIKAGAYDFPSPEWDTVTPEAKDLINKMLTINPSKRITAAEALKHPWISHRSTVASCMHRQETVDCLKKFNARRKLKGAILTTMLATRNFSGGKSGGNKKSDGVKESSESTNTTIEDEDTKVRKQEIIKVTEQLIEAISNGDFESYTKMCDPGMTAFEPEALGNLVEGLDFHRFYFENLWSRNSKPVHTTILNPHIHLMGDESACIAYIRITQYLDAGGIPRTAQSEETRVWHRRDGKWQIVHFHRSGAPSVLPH

With `N=C1NC(=O)/C(=C\c2ccc(-c3cccc([N+](=O)[O-])c3)o2)S1`, the Activity is 85% in experiment [1]; 94% in [2]; 107% in [3]; 80% in experiment [4]; 87% in experiment [5]; 57% in [6]. Besides, the Activity in experiment [7] was determined as 65%; in [8], 82%; in [9], 91%; in experiment [10], 101%; in experiment [11], 81%; in experiment [12] it was 88%. Besides, the Activity in experiment [13] was determined as 98%; in [14], 77%; in experiment [15], 114%; in [16], 98%; in [17], 102%; in experiment [18] it was 104%. The Activity in the experiment filed under Homo sapiens was 96%; in experiment [19], 111%; in experiment [20], 103%.
Take `C=CCOC(=O)c1cc(-c2ccc(/C=C3/NC(=S)NC3=O)o2)ccc1Cl`: the Activity stood at 122% in experiment [1]; 110% in [2]; 93% in [3]; 62% in experiment [4]; 95% in experiment [5]; 87% in experiment [6]. Further, the Activity was determined as 58% in experiment [7]; 91% in experiment [8]; 106% in experiment [9]; 99% in experiment [10]; 89% in [11]; 96% in [12]. The Activity in [13] amounted to 99%; in experiment [14] it was 84%; in experiment [15], 96%; in experiment [16], 105%; in experiment [17] it was 105%; in [18] it was 106%. For the same molecule, the Activity was determined as 99% in the experiment filed under Homo sapiens, 92% in [19] and 98% in experiment [20].

Source of the values: ChEMBL document CHEMBL4334438, “Discovery of novel glycogen synthase kinase-3α inhibitors: Structure-based virtual screening, preliminary SAR and biological evaluation for treatment of acute myeloid leukemia” (Eur J Med Chem, 2019).
